Where two headings read alike, the source gives them in different places.
Key:
[1] = molecular target: T1, purified, recombinant human DPIV (Homo sapiens, UniProt P27487); test: Inhibition of enzymatic activity of DPIV (fluorogenic substrate hydrolysis); assay type: biochemical; conditions: highest test item concentration 25 μM; for IC50: read-out: meas. IC50 (DPIV)
T1 construct: made in house; host or cells: Sf9 insect cells
Protocol: (§1) The inhibition of the enzymatic activity of DPIV and related enzymes was measured by using purified, recombinant human DPIV (purified from transfected Sf9 cells, final enzyme concentration approx. 1 nM) as well as purified, recombinant DP8 and DP9 (purchased from Biomol). The assay was performed in 0.05M TRIS/HCl puffer pH 7.5, supplemented with 0.05% Triton (v/v), 0.05% BSA (w/v), 2 mM MgCl2.
(§2) The enzymatic activity of DPIV was assessed by the hydrolysis of the fluorogenic substrates H-Gly-Pro-4-amino-7-methyl coumarine (abbreviation of fluorogenic group AMC; purchased from Bachem) or (Ala-Pro)2-Rhodamine 110 (abbreviation R110). The final substrate concentrations were 50 μM or 1 μM, respectively.
(§3) The assay was performed in white microtitre plates for fluorescence measurements. The test items, substrate and enzyme were diluted in assay buffer. The highest test item concentration used was 25 μM. For the calculation of IC50 values, at least 16 log 2-dilutions of each test item were analyzed. As controls, the DPIV activity in the absence of test items as well as the spontaneous hydrolysis of the substrate was determined.
(§4) The release of the fluorescent hydrolysis product AMC was measured at an excitation wavelength of 380 nm and an emission wavelength of 460 nm by using a microtitre fluorescence reader immediately after substrate addition as well as after 30, 60 and 120 min. The hydrolysis of the substrate (Ala-Pro)2-Rhodamine 110 was determined at an exitation wavelength of 488 nm and emission wavelength of 530 nm.

[2] = test system: SZ95 cells; test: Inhibition of DNA synthesis and proliferation of immortalized human sebocytes SZ95; assay type: cell-based; conditions: EGF-stimulated SZ95 sebocytes, tritium thymidine incorporation, read-out: Supp. DNA Synt. SZ95 IC50
Protocol: The immortalized human sebocyte line SZ95 was provided by Prof. C Zouboulis [C C Zouboulis, H Seltmann, H Neitzel, C E Orfanos, Establishment and characterization of an immortalized human sebaceous gland cell line (SZ95). J. Invest. Dermatol. 113(6):1011-1020 (1999), the entire disclosure of which is incorporated by reference herein]. These adherent growing cells were cultured in serum-free Sebomed Complete (Biochrom). Recombinant EGF was added in order to stimulate DNA synthesis and proliferation of the SZ95 cells. Test items were added in concentrations from 0.1 up to 100 μM.
The DNA synthesis of proliferating cells was detected by incorporation of radiolabelled tritium thymidine (3HT) and counting at a beta counter. Based on these raw data the relative proliferation response in relation to cells cultured in the absence of test compound (100% control) was calculated. IC50 values of proliferation suppression were assessed by computer-assisted graphical evaluation.

[3] = test system: NHEK cells; test: Inhibition of DNA synthesis and proliferation of normal human epidermal keratinocytes (NHEK); assay type: cell-based; conditions: EGF-stimulated NHEK, BrdU incorporation, read-out: Supp. DNA Synt. NHEK IC50
Protocol: NHEK cells (primary cells from person) were purchased from PromoCell. For these assay the adherent cells were cultured in serum-free Keratinocyte Growth medium 2 supplemented with epidermal growth factor (EGF) and bovine pituitary extract for 48 hours in flat-bottom microtiter plates. EGF stimulates the DNA synthesis and proliferation of these cells. Test items were added in concentrations from 0.1 up to 100 μM.
The DNA synthesis was assessed by incorporation of bromdesoxyuridine (BrdU) and subsequent detection of BrdU by ELISA technique. Based on these raw data the relative proliferation response in relation to cells cultured in the absence of test compound (100% control) was calculated. IC50 values of proliferation suppression were assessed by computer-assisted graphical evaluation.

[4] = test system: purified, recombinant DP8 and DP9; test: Inhibition of enzymatic activity of DP8/9; assay type: biochemical; conditions: highest test item concentration 25 μM; for IC50: read-out: meas. IC50 (DP8/9)
Protocol: as §1, §2, §3, §4

[5] = test system: T lymphocytes (T cells); test: Suppression of DNA synthesis of PHA-stimulated T lymphocytes; assay type: cell-based; conditions: tritium thymidine incorporation, read-out: Supp. DNA Synt. T-cell IC50
Protocol: Peripheral blood mononuclear cells (PBMC) from healthy human volunteers were freshly isolated by density gradient centrifugation. T lymphocytes (T cells) were isolated from PBMC fractions via nylon wool adherence. Both cell populations were cultured in serum free lymphocyte medium (AIMV medium, Invitrogen) and stimulated by addition of 1 μg/ml Phytohemagglutinine for 48 hours in 96 well flat-bottom microtiter plates. Test compounds were added at concentration ranges from 0.1 up to 250 μM over the total assay period.
DNA synthesis of proliferating PBMC was assessed by incorporation of nucleotide analogue bromdesoxyuridine (BrdU) and subsequent detection of BrdU by ELISA technique (Cell Proliferation Biotrak™ ELISA system, GE Health Care) according to the protocol of the manufacturer. DNA synthesis of proliferating T cells was determined by incorporation of radio labelled tritium thymidine and subsequent radio detection.
Data output was based on raw data and calculation of relative proliferation response in relation to PHA-activated T cells in the absence of test compound (100% control). The IC50 value of proliferation suppression was assessed by graphical evaluation.

[6] = molecular target: T2, aminopeptidase N (APN), purified recombinant human enzyme (Homo sapiens, UniProt P15144); test: Inhibition of enzymatic activity of aminopeptidase N (fluorogenic substrate hydrolysis); assay type: biochemical; conditions: highest test item concentration 25 μM; for IC50: read-out: meas. IC50 (APN)
T2 construct: made in house; host or cells: ECV cells (transfected)
Protocol: The inhibition of the enzymatic activity of aminopeptidase N (APN) was measured by using purified, recombinant human enzyme (purified from transfected ECV cells, final enzyme concentration approx. 1 nM). […] The assay was performed in 0.05M TRIS/HCl puffer pH 7.5, supplemented with 0.05% Triton (v/v), 0.05% BSA (w/v), 2 mM MgCl2.
The aminopeptidase acitivities wer assessed by the hydrolysis of the fluorogenic substrates H-Ala-4-amino-7-methyl coumarine (abbreviation of fluorogenic group AMC; purchased from Bachem) or (Ala-)2-Rhodamine 110 (abbreviation R110). The final substrate concentrations were again 50 and 1 μM, respectively.
as §3
The release of the fluorescent hydrolysis products AMC and R110 was measured as described above for DPIV substrates.

[7] = molecular target: T3, cytosolic aminopeptidase (cAAP) purified from Jurkat cells (Homo sapiens, UniProt P55786); test: Inhibition of enzymatic activity of cytosolic aminopeptidase (cAAP); assay type: biochemical; conditions: highest test item concentration 25 μM; for IC50: read-out: meas. IC50 (cAAP)
T3 construct: The cytosolic aminopeptidase (cAAP) was purified from Jurkat cells; endogenous in cells; host or cells: Jurkat cells (enzyme purified from them)

[8] = PHA-stimulated human T cells, 48 hours

T2 sequence (P15144 whole entry): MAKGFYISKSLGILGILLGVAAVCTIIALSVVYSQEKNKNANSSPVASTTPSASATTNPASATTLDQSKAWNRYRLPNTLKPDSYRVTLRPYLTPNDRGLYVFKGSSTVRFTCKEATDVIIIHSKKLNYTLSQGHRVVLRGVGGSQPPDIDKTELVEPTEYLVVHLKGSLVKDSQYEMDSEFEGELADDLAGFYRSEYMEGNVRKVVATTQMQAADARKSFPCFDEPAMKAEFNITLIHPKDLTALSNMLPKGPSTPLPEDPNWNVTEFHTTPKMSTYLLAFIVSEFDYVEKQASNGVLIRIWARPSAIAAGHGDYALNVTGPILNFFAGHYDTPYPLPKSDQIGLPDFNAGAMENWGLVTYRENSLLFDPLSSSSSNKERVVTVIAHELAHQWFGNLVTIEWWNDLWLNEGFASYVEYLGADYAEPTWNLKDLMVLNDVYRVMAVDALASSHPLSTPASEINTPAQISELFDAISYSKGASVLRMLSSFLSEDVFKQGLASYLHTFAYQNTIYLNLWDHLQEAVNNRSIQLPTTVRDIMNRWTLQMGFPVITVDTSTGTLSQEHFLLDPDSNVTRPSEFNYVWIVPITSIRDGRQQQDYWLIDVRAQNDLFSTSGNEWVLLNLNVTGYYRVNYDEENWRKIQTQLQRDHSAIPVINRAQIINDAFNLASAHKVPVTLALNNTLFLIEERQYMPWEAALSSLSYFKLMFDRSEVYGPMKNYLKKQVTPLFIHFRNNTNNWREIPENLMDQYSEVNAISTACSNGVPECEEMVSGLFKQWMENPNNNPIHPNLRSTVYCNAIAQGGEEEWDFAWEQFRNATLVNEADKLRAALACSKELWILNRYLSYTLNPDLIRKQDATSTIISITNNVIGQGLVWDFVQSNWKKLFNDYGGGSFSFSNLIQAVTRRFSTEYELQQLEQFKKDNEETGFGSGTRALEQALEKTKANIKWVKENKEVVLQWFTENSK
T3 sequence (P55786 whole entry): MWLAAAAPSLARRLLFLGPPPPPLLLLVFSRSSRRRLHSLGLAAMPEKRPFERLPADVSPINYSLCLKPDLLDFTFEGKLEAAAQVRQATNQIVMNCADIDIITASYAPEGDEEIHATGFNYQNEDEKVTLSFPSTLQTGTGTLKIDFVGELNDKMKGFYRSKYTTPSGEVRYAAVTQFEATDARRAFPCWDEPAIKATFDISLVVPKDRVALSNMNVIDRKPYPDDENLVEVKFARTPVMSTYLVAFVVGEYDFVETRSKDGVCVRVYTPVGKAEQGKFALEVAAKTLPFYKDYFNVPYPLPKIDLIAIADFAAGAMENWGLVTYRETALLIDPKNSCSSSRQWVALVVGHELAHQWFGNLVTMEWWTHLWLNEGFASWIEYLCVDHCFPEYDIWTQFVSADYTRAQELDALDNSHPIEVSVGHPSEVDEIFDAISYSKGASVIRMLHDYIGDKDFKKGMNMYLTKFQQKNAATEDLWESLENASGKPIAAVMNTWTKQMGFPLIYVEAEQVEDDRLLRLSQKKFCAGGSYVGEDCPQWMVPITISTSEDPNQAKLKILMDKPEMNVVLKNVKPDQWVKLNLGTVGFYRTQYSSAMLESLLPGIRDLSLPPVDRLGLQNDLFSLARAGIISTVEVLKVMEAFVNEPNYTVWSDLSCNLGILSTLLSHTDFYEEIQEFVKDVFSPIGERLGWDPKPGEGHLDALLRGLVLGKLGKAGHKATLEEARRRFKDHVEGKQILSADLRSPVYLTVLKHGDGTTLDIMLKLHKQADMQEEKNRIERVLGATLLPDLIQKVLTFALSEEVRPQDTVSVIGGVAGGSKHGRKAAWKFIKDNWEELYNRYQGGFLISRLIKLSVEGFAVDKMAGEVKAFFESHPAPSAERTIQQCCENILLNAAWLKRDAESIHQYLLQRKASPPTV
T1 sequence (P27487 whole entry): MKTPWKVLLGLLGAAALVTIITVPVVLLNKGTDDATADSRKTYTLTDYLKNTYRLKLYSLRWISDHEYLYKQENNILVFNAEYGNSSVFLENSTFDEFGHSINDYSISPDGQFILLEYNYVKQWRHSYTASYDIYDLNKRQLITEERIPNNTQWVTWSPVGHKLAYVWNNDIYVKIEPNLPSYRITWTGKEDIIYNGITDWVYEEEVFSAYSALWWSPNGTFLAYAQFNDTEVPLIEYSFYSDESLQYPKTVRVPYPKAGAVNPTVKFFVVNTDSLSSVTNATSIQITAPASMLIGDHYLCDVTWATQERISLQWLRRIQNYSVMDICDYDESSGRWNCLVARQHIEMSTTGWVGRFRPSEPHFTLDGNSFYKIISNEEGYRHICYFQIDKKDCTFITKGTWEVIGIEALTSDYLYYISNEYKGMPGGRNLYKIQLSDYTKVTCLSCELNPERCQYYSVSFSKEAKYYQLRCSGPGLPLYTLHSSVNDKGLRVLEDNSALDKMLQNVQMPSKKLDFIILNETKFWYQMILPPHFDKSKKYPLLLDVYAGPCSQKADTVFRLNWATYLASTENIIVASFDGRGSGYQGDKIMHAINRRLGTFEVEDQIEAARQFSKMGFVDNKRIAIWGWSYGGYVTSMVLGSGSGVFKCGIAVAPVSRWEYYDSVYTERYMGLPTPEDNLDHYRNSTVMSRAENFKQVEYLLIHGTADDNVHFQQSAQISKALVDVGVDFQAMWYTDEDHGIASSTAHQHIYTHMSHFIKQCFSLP

meas. IC50 (DPIV) [1] | meas. IC50 (DP8/9) [4] | meas. IC50 (APN) [6] | IC50 ([5]; Homo sapiens, T-cell, 48 h) | IC50 [7] | IC50 [1] | IC50 [4] | IC50 [6] | Compound | IC50 ([2]; Homo sapiens) | IC50 ([3]; Homo sapiens, 48 hours) | IC50 ([5]; T-cell, PHA-stimulated human T cells, 48 hours) | meas. IC50 (cAAP) [7] | IC50 ([3]; Homo sapiens, NHEK, 48 h) | IC50 [2] | IC50 ([3]; 48 hours) | IC50 [5, 8]
no in- hibition | no in- hibition | no in- hibition | 11.5 µM | 5.7 µM | – | – | – | CCCC(=O)OC(C(=O)Nc1cccc(C(=O)NCC(Cc2cc(F)ccc2F)NC(=O)OC(C)(C)C)c1)C(COCc1ccccc1)NC(=O)OC(C)(C)C (centres unmarked) [Compound C19.005] | 10.7 µM | – | – | – | 3.65 µM | – | – | –
– | – | – | 30.2 µM | 3.5 µM | 0.032 µM | 0.34 µM | 3.79 µM | NC(CCCCNC(=O)C(S)C(N)Cc1ccccc1)C(=O)N1CCSC1 (centres unmarked) [Compound C22.003] | 75.2 µM | – | – | – | 38.9 µM | – | – | –
– | – | – | 29.4 µM | 0.33 µM | 14.5 µM | 24.3 µM | 0.59 µM | CC(C)NC(CC(=O)NCC(C)(C)CNC(=O)C(O)C(N)COCc1ccccc1)Cc1cc(F)ccc1F (centres unmarked) [Compound C19.029] | 92.7 µM | – | – | – | 34.8 µM | – | – | –
no in- hibition | no in- hibition | no in- hibition | 54.1 µM | 1 µM | – | – | – | CC(C)(C)OC(=O)NC(CCCCNC(=O)C(S)C(Cc1ccccc1)NC(=O)OC(C)(C)C)C(=O)N1CCSC1 (centres unmarked) [Compound C22.002] | ≥ 200 µM | – | – | – | 85.2 µM | – | – | –
– | – | – | 90.1 µM | 0.066 µM | 0.11 µM | 0.02 µM | 0.178 µM | NC(CCCCNC(=O)C(O)C(N)Cc1ccccc1)C(=O)N1CCSC1 (centres unmarked) [Compound C21.001] | 65.5 µM | – | – | – | 77 µM | – | – | –
– | – | – | 157 µM | 0.13 µM | 0.07 µM | 0.054 µM | 0.62 µM | NC(CCCCNC(=O)c1cccc(NC(=O)C(O)C(N)Cc2ccccc2)c1)C(=O)N1CCSC1 (centres unmarked) [Compound C21.003] | ≥ 200 µM | – | – | – | 62 µM | – | – | –

Continued, compound first:

Compound | meas. IC50 (DPIV) [1] | meas. IC50 (DP8/9) [4] | meas. IC50 (APN) [6] | IC50 ([5]; Homo sapiens, T-cell, 48 h) | IC50 [7] | IC50 [1] | IC50 [4] | IC50 [6] | IC50 ([2]; Homo sapiens) | IC50 ([3]; Homo sapiens, 48 hours) | IC50 ([5]; T-cell, PHA-stimulated human T cells, 48 hours) | meas. IC50 (cAAP) [7] | IC50 ([3]; Homo sapiens, NHEK, 48 h) | IC50 [2] | IC50 ([3]; 48 hours) | IC50 [5, 8]
CC(C)(CNC(=O)CC(Cc1cc(F)ccc1F)Nc1ccc([N+](=O)[O-])c2nonc12)CNC(=O)C(O)C(COCc1ccccc1)Nc1ccc([N+](=O)[O-])c2nonc12 (centres unmarked) [Compound C19.030] | No in- hibition | no in- hibition | no in- hibition | – | – | – | – | – | 29.7 µM | 7.55 µM | 18.2 µM | no in- hibition | – | – | – | –
CCOC(=O)NC(CC(=O)NCC(C)(C)CNC(=O)C(O)C(COCc1ccccc1)NC(=O)OCC)Cc1cc(F)ccc1F (centres unmarked) [Compound C19.009] | no in- hibition | no in- hibition | – | 33.9 µM | 3.4 µM | – | – | 5.9 µM | 59.1 µM | – | – | – | 100 µM | – | – | –
CCCCCCCCCCCCCC(=O)NC(CC(=O)NCC(C)(C)CNC(=O)C(O)C(COCc1ccccc1)NC(=O)CCCCCCCCCCCCC)Cc1cc(F)ccc1F (centres unmarked) [Compound C19.011] | no in- hibition | no in- hibition | no in- hibition | 168 µM | – | – | – | – | ≥ 155 µM | – | – | no in- hibition | ≥ 110 µM | – | – | –
CC(C)(CNC(=O)CC(Cc1cc(F)ccc1F)NC(=O)OC(C)(C)C)CNC(=O)C(O)C(COCc1ccccc1)NC(=O)OC(C)(C)C (centres unmarked) [Compound C19.025] | No in- hibition | no in- hibition | no in- hibition | – | – | – | – | – | – | – | – | no in- hibition | – | 15.4 µM | 17.3 µM | 12.3 µM
CC(C)(CNC(=O)CC(Cc1cc(F)ccc1F)NC(=O)C(C)(C)C)CNC(=O)C(O)C(COCc1ccccc1)NC(=O)C(C)(C)C (centres unmarked) [Compound C19.016] | no in- hibition | no in- hibition | no in- hibition | 15.7 µM | – | – | – | – | 49.2 µM | – | – | no in- hibition | 37.9 µM | – | – | –
CC(C)(CNC(=O)CC(Cc1cc(F)ccc1F)NC(=O)OC(C)(C)C)CNC(=O)C(O)C(COCc1ccccc1)NC(=O)OC(C)(C)C (centres unmarked) [Compound C19.023] | No in- hibition | no in- hibition | no in- hibition | 11.5 µM | – | – | – | – | 15.9 µM | – | – | no in- hibition | – | – | 41 µM | –
CC(C)(CNC(=O)CC(Cc1cc(F)ccc1F)NC(=O)OC(C)(C)C)CNC(=O)C(O)C(COCc1ccccc1)NC(=O)OC(C)(C)C (centres unmarked) [Compound C19.024] | No in- hibition | no in- hibition | no in- hibition | – | – | – | – | – | – | – | – | no in- hibition | – | 13.3 µM | 21.1 µM | 11.4 µM
CCCCCCCC(=O)NC(CC(=O)NCC(C)(C)CNC(=O)C(O)C(COCc1ccccc1)NC(=O)CCCCCCC)Cc1cc(F)ccc1F (centres unmarked) [Compound C19.010] | no in- hibition | no in- hibition | no in- hibition | 7.6 µM | 3.5 µM | – | – | – | 12.2 µM | – | – | – | 48.1 µM | – | – | –

Reference: patent publication US20120028995A1, “NOVEL COMPOUNDS FOR MEDICAL USE AS PEPTIDASE EFFECTORS” (IMTM GMBH, priority 2010, published 2012)
